Reference: US10093627B2, “Tetrahydroquinoline derivatives and their use as Epac inhibitors” (Institut National de la Sante et de la Recherche Medicale …, priority 2012, dated 2018)

Columns and labels:
[1] = tested on: Iso-induced NFAT-Luc transcriptional activation; test: NFAT-Luc transcriptional activation (Firefly luciferase assay) in neonatal cardiomyocytes; format: cell-based, rat; conditions: CE3F4 20 μM, 30 min pretreatment; Iso 10 μM, 8 h; FIG. 4B
Description: (§1) ANF and NFAT promoters were fused to the Firefly luciferase gene (ANF-Luc) (NFAT-Luc) to detect ANF and NFAT by Firefly Luciferase assay (see Materiel and Methods).
(§2) Rat neonatal cardiomyocytes were cotransfected with ANF-Luc and Epac1 or empty vector pcDNA3 as control. One day after transfection, cells were pretreated or not with CE3F4 (20 μM) for 30 min and stimulated or not with Iso (10 μM) for 8 h. Cells were then assayed for Luciferase activity. B) Iso-induced NFAT-Luc Transcriptional Activation is Blocked by CE3F4: Neonatal cardiomyocytes were transfected with NFAT-Luc. One day later cells were pretreated or not with CE3F4 (20 μM) for 30 min and stimulated or not with Iso (10 μM) for 8 h. The day after, cells were assayed for Luciferase activity.
(§3) Results were normalized to control for each experiment, and were expressed as means±S.E.M of at 4 (FIG. 4A) or 5 (FIG. 4B) independent experiments performed in triplicates.
(§4) The rat ANF promoter fused to the Firefly luciferase reporter gene (ANF-Luc) by Dr K. Knowlton, Epac and Rap1 plasmid construct (Epac1^WT) by Drs J. L. Bos and J. de Gunzburg, respectively. The Firefly luciferase reporter plasmid driven by four NFAT consensus binding sites (NFAT-Luc) was purchased from Stratagene. […]
(§5) Cells were lysed, and luminescence was detected using the Luciferase Assay System (Promega) according to the manufacturer's instructions with Tecan Infinite.

[2] = tested on: Iso-induced ANF-Luc transcriptional activation; test: ANF-Luc transcriptional activation (Firefly luciferase assay) in rat neonatal cardiomyocytes; format: cell-based; conditions: CE3F4 20 μM, 30 min pretreatment; Iso 10 μM, 8 h; FIG. 4A
Description: as §1, §2, §3, §4, §5

Epac2(AB) = target: T1, Epac2(AB) (Homo sapiens, UniProt Q8WZA2); test: In vitro GEF activity (initial velocity of GDP exchange on Rap1A) of Epac2(AB); format: biochemical; conditions: 50 μM racemic CE3F4; agonist 50 μM 007 or 300 μM cAMP; FIG. 6A
T1 construct: Human Epac2(AB) (amino acids 43-1011) carries both the CNB-A and the CNB-B domains; made in house; host or cells: Escherichia coli Rosetta 2(DE3)
T1 sequence (Q8WZA2 43-1011): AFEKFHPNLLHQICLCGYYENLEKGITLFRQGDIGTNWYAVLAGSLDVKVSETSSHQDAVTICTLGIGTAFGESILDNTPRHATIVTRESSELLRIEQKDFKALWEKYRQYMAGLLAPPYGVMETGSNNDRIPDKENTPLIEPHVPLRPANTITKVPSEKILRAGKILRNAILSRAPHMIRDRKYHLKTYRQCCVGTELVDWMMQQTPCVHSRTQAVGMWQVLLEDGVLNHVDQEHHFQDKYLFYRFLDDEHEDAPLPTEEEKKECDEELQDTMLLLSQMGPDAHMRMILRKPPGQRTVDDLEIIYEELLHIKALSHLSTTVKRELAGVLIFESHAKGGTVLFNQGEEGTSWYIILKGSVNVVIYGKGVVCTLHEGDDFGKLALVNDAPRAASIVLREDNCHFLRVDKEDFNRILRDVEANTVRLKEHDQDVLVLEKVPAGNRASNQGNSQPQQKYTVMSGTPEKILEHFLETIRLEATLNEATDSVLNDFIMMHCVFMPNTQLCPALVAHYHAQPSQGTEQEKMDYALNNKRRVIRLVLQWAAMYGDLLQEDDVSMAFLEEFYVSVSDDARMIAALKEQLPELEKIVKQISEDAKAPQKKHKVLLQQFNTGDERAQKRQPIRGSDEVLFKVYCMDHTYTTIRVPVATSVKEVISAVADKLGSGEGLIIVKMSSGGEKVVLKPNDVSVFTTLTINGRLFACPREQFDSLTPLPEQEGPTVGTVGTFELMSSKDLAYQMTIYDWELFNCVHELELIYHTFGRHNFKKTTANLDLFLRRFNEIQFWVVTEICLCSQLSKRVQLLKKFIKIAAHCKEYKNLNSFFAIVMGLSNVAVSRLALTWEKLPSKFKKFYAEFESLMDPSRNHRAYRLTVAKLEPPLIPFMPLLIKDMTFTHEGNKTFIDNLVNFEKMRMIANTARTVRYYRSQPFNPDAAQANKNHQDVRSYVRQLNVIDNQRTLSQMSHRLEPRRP
Excerpt: Human Epac2(AB) (amino acids 43-1011) carries both the CNB-A and the CNB-B domains. Human Epac2(B) (amino acids 283-1011) lacks the first 283 amino acids of Epac2. It is therefore deleted of its CNB-A and DEP domains, but retains the CNB-B domain and the full catalytic region. Epac2(AB) was obtained by HindIII/NotI restriction and Epac2(B) was obtained by Ssp1/Not1 restriction of a human Epac2A cDNA (a gift from Ann M Graybiel, Department of Brain and Cognitive Sciences, MIT, Cambridge). Both cDNA fragments were inserted into pET41a (Novagen), expressed in Escherichia coli Rosetta 2(DE3) (Novagen), and the GST-tagged fusion proteins were purified by nickel-nitrilotriacetic acid beads (Qiagen), as described in D. Courilleau, et al., Identification of a tetrahydroquinoline analog as a pharmacological inhibitor of the cAMP-binding protein Epac, J. Biol. Chem. 287 (2012) 44192-44202).
In vitro GDP exchange catalyzed by Epac was measured using purified recombinant Epac isoforms and Rap1A loaded with Bodipy-GDP, as described in D. Courilleau, et al (above mentioned). […] The release of Bodipy-GDP was measured in real time as the decay of fluorescence. […] The initial velocity (Vi) of GDP exchange on Rap1 was calculated as described in D. Courilleau et al.).
Data are expressed as mean±S.D. Differences in quantitative variables were examined by unpaired one- or two-tailed Student's t test. […]

CC1CCc2c(cc(Br)c(F)c2Br)N1C=O (racemic) [CE3F4]
Effect on Iso-induced NFAT transcriptional activity [1]: prevented | Effect on Iso-induced ANF-Luc gene transcriptional activity [2]: significantly inhibited | Inhibitory effect on GEF activity of Epac2(AB), compared with Epac2(B) (Epac2(AB)): no significant difference
